Test results taken from article PMC10714400, “Antimicrobial Peptide–Peptoid Hybrids with and without Membrane Disruption” (ACS Infectious Diseases, 2023).
In brackets after ≈: the same amount, converted by molar mass. Where a SMILES comes first, the peptide text is derived from it. [ ]: non-standard residue; d: D form. Nleu = CC(C)CNCC(=O)O; Nlys = NCCCCNCC(=O)O

Key:
[1] = tested on: human red blood cells (hRBC); test: Minimum hemolytic concentration (MHC); type: cell-based
Source text: We also measured minimal hemolysis concentrations (MHC) on human red blood cells by serial 2-fold dilution as an indication of toxicity against eukaryotic cells (Table 1).

S. aureus COL (MRSA) = tested on: S. aureus COL (MRSA)
Experimental: (§1) Antimicrobial activity was assayed for all the peptide–peptoids against P. aeruginosa PAO1, K. pneumoniae NCTC418, E. coli W3110, A. baumannii ATCC 19606, methicillin-resistant S. aureus COL (MRSA), and for selected peptides on P. aeruginosa PA14 and the polymyxin-B-resistant derivatives PA14 4.13, PA14 4.18, PA14 2P4, as well as the clinical isolates ZEM-1A and ZEM9A, K. pneumoniae OXA-48, S. aureus Newman, Enterobacter cloacae, Stenotrophomonas maltophilia, Burkholderia cenocepacia, and Staphylococus epidermidis. To determine the Minimal Inhibitory Concentration (MIC), the Broth Microdilution method was used.[72] A colony of bacteria was picked and grown in LB medium overnight at 37 °C.
(§2) To each well was finally added 4 μL of the diluted bacterial suspension (see above), corresponding to approximately 5 × 10^5 CFU. For each test, two columns of the plate were kept for sterility control (medium only), growth control (medium with bacterial inoculum, no compound). The positive control, Polymyxin B (starting with a concentration of 16 μg/mL) in MH medium with bacterial inocula, was introduced in the two lines of the plate. The plates were incubated at 37 °C for ca. 18 h under static conditions. Next, 15 μL of 3-(4,5-dimethylthiazol-2-yl)-2,5-diphenyltetrazolium bromide (MTT)[73] (1 mg/mL in sterilized MilliQ deionized water) were added to each well, and the plates were incubated for 20–30 min at room temperature. The minimal inhibitory concentration (MIC) was defined as the lowest concentration of the compound that inhibits the visible growth of the tested bacteria (yellow) with the unaided eye.

K. pneumoniae NCTC418 = tested on: K. pneumoniae NCTC418
Experimental: as §1, §2

P. aeruginosa PAO1 = tested on: P. aeruginosa PAO1
Experimental: as §1, §2

PA14 4.18 (pmrB) = details: […] MH at pH 8.5
Experimental: as §1, §2

E. coli W3110 = tested on: E. coli W3110
Experimental: as §1, §2

PA14 4.13 (phoQ) = details: CSV; […] MH at pH 8.5
Experimental: as §1, §2

PA14 2P4 (pmrB) = details: CSV; […] MH at pH 8.5
Experimental: as §1, §2

A. baumannii ATCC19606 = tested on: A. baumannii ATCC19606
Experimental: as §1, §2

[2] = Circular dichroism, α-helical content; type: physicochemical; details: 0.1 mg/mL; for CD %α with 5 mM DPC: 10 mM phosphate buffer pH 7.4, 5 mM DPC; for CD %α with 20% TFE: 10 mM phosphate buffer pH 7.4, 20% TFE
P. aeruginosa PA14 = details: Table S3; […] MH at pH 8.5, 16-20 hours at 37 °C
Experimental: as §1
as §2, with “The plates were incubated at 37 °C for ca. 18 h under static conditions.” left out

S. aureus Newman = details: Table S3; […] MH at pH 8.5
Experimental: as §1
as §2, with “The plates were incubated at 37 °C for ca. 18 h under static conditions.” left out

CC(C)C[C@H](NC(=O)[C@H](CCCCN)NC(=O)[C@@H](N)CCCCN)C(=O)N[C@@H](CC(C)C)C(=O)N[C@@H](CCCCN)C(=O)N(CC(=O)N(CC(=O)N(CCCCN)CC(=O)N(CC(=O)N(CC(=O)N(CC(N)=O)CC(C)C)CC(C)C)CC(C)C)CC(C)C)CC(C)C [EB4, KKLLKllklll] (H-KKLLK[Nleu][Nleu][Nlys][Nleu][Nleu][Nleu]-NH2)
Hemolysis [1]: none of them showed any measurable hemolysis
MHC [1]: >2000 µg/mL
MIC S. aureus COL (MRSA), full MH at pH 7.4 (S. aureus COL (MRSA); COL, 4 h, pH 7.4): >32 ug/mL
MIC S. aureus COL (MRSA) […] 7.4 (S. aureus COL (MRSA); Table S2, […] MH, pH 7.4): 32 µg/mL (≈ 24.2 µM)
MIC S. aureus COL (MRSA) Full MH 7.4 (S. aureus COL (MRSA); Table S2, full MH, pH 7.4): > 32 µg/mL
MIC S. aureus COL (MRSA) Full MH 8.5 (S. aureus COL (MRSA); Table S2, full MH, pH 8.5): 16 µg/mL (≈ 12.1 µM)
MIC K. pneumoniae NCTC418, full MH at pH 7.4 (K. pneumoniae NCTC418; NCTC418, 4 h, pH 7.4): >32 ug/mL
MIC K. pneumoniae NCTC418 […] 7.4 (K. pneumoniae NCTC418; Table S2, […] MH, pH 7.4): > 32 µg/mL
MIC K. pneumoniae NCTC418 […] 8.5 (K. pneumoniae NCTC418; Table S2, […] MH, pH 8.5): 32 µg/mL (≈ 24.2 µM)
MIC K. pneumoniae NCTC418 Full MH 7.4 (K. pneumoniae NCTC418; Table S2, full MH, pH 7.4): > 32 µg/mL
MIC K. pneumoniae NCTC418 Full MH 8.5 (K. pneumoniae NCTC418; Table S2, full MH, pH 8.5): 16 µg/mL (≈ 12.1 µM)
MIC P. aeruginosa PAO1, full MH at pH 7.4 (P. aeruginosa PAO1; PAO1, 4 h, pH 7.4): >32 ug/mL
MIC P. aeruginosa PAO1 […] 8.5 (P. aeruginosa PAO1; Table S2, […] MH, pH 8.5): 4 µg/mL (≈ 3.03 µM)
MIC P. aeruginosa PAO1 Full MH 7.4 (P. aeruginosa PAO1; Table S2, full MH, pH 7.4): > 32 µg/mL
MIC P. aeruginosa PA14 4.18, […] MH at pH 8.5 (PA14 4.18 (pmrB); CSV): 24 ug/mL
MIC P. aeruginosa PA14 4.18 (PA14 4.18 (pmrB); Table S3): 16 to 32 µg/mL
MIC E. coli W3110, […] MH at pH 7.4 (E. coli W3110; CSV, […] MH at pH 7.4): 8 ug/mL
MIC E. coli W3110, full MH at pH 7.4 (E. coli W3110; CSV, full MH at pH 7.4): >32 ug/mL
MIC E. coli W3110, full MH at pH 8.5 (E. coli W3110; CSV, full MH at pH 8.5): 8 ug/mL
MIC E. coli W3110 […] 7.4 (E. coli W3110; Table S2, […] MH, pH 7.4): 8 µg/mL (≈ 6.05 µM)
MIC E. coli W3110 […] 8.5 (E. coli W3110; Table S2, […] MH, pH 8.5): 2 µg/mL (≈ 1.51 µM)
MIC E. coli W3110 Full MH 7.4 (E. coli W3110; Table S2, full MH, pH 7.4): > 32 µg/mL
MIC E. coli W3110 Full MH 8.5 (E. coli W3110; Table S2, full MH, pH 8.5): 8 µg/mL (≈ 6.05 µM)
MIC P. aeruginosa PA14 4.13, […] MH at pH 8.5 (PA14 4.13 (phoQ)): 8 ug/mL
MIC P. aeruginosa PA14 2P4, […] MH at pH 8.5 (PA14 2P4 (pmrB)): 16 ug/mL
MIC A. baumannii ATCC19606, full MH at pH 7.4 (A. baumannii ATCC19606; ATCC19606, 4 h, pH 7.4): >32 ug/mL
MIC A. baumannii ATCC19606 […] 7.4 (A. baumannii ATCC19606; Table S2, […] MH, pH 7.4): 32 µg/mL (≈ 24.2 µM)
MIC A. baumannii ATCC19606 […] 8.5 (A. baumannii ATCC19606; Table S2, […] MH, pH 8.5): 16 µg/mL (≈ 12.1 µM)
MIC A. baumannii ATCC19606 Full MH 7.4 (A. baumannii ATCC19606; Table S2, full MH, pH 7.4): > 32 µg/mL
MIC A. baumannii ATCC19606 Full MH 8.5 (A. baumannii ATCC19606; Table S2, full MH, pH 8.5): 16 µg/mL (≈ 12.1 µM)
CD %α with 5 mM DPC ([2]; DichroWeb, Contin-LL): 9%
CD %α with 20% TFE ([2]; DichroWeb, Contin-LL): 11%
CD %α with 5 mM DPC ([2]; Table S2): 9%
CD %α with 20% TFE ([2]; Table S2): 11%
MIC P. aeruginosa PA14 (P. aeruginosa PA14): 4 µg/mL (≈ 3.03 µM)
MIC S. aureus Newman (S. aureus Newman): 8 µg/mL (≈ 6.05 µM)
